Consider 6 compounds from patent US20040242542A1, “Compositions and methods for inducing CD81 dependent antiproliferation and for treating hepatitis C and other disorders” (The Regents of the University of California, priority 2003, published 2004).

The test system of assay [1] is CD81-enriched cell lines (astrocyte) vs. CD81-deficient cell lines (C6 glioma). Kind of assay: Antiproliferation of CD81-enriched astrocytes vs. CD81-deficient C6 glioma cells. To be noted: for astrocyte-selective antiproliferation: concentration range of 0.1 to 10 μM, astrocytes relative to CD81-deficient cell lines. It is filed as cell-based. From the text: Further in accordance with the present invention, there are provided methods for synthesis of amantadine analogues by appending primary amines to 1-boraadamantane to evaluate such compounds for CD81 dependent antiproliferation of CD81-enriched cell lines (astrocyte) vs. CD81-deficient cell lines (C6 glioma). Specific details of the synthetic methods of the present invention as well as related data is now published in Wagner, Carl E. et al., Synthesis of-1-Boraadamantaneamine Derivatives with Selective Astrocyte vs C6 Glioma Antiproliferative Activity. A Novel Class of Anti-Hepatitis C Agents with Potential to Bind CD81, J.Med.Chem., Vol.46,2823-2833 (2003) and Wagner, Carl E., Syntheis and First Molecular Structure of a Bis-2-spiro-1boraadamantane Dirivative, Organic Letters, Vol. 6, No. 3, 313-316 (2004), copies of which are filed herewith and the entireties of which are expressly incorporated herein by reference.
The amantadine analogues of the present invention that bind to and activate CD81 may have the potential to prevent or treat HCV infections. Each compound's potential for preventive and therapeutic activity stems from the compound's potential to block viral attachment, virus-cell fusion or virus entry into host cells, or similarly counter potential mechanisms of HCV immune evasion. Out of a library of over 500 compounds including randomly selected small molecules and rationally designed small molecules, only the 1-boraadamantane amine compounds display a significant antiproliferative effect on the CD81-enriched astrocytes relative to the CD81-deficient cell lines. […] Additionally, structurally similar adamantane analogues to the active primary amine 1-boraadamantane complexes identified in this assay were synthesized for testing.
A variety of 1-boraadamatane amine complexes were synthesized by stoichiometric addition of a primary amine to 1-boraadamantane·THF. These complexes were subsequently evaluated for an antiproliferative effect on CD81-enriched cell lines to provide evidence for binding and activation of the CD81 receptor. Additional amantidine analogues structurally similar to the 1-boraadamantane amine complexes were also synthesized.

Another assay has as its target α4 β1/VCAM cell line (Homo sapiens, UniProt P05556+P13612). To be noted: reported in the literature; read-out: IC50 as antagonist for α4 β1/VCAM; cited from earlier work.

Sequence of α4 β1/VCAM cell line (P13612 34-1032): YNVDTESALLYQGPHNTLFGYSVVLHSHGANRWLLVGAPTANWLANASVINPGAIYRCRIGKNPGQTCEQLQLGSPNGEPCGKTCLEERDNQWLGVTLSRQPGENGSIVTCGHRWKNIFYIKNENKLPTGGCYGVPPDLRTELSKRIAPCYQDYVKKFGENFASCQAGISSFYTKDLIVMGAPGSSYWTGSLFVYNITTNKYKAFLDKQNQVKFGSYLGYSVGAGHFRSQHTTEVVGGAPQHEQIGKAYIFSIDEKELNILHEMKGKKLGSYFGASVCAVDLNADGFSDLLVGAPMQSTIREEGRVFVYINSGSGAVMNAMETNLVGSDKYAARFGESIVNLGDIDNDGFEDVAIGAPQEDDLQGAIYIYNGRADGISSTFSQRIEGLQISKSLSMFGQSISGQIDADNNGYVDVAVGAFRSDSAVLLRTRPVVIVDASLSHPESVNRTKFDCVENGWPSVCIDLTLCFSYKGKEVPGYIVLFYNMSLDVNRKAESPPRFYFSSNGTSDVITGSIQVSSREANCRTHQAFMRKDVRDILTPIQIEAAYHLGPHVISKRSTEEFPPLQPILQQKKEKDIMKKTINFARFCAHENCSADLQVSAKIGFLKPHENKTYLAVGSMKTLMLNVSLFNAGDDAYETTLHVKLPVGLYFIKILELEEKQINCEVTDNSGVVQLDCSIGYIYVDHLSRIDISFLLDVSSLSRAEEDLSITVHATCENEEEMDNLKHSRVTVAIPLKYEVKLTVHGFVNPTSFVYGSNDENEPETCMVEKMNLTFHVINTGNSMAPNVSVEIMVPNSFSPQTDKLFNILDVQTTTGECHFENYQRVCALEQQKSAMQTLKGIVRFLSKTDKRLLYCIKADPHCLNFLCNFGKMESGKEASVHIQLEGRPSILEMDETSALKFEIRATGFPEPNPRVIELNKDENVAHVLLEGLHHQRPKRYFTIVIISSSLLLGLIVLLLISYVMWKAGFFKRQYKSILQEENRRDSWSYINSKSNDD
Sequence of α4 β1/VCAM cell line (P05556 21-798): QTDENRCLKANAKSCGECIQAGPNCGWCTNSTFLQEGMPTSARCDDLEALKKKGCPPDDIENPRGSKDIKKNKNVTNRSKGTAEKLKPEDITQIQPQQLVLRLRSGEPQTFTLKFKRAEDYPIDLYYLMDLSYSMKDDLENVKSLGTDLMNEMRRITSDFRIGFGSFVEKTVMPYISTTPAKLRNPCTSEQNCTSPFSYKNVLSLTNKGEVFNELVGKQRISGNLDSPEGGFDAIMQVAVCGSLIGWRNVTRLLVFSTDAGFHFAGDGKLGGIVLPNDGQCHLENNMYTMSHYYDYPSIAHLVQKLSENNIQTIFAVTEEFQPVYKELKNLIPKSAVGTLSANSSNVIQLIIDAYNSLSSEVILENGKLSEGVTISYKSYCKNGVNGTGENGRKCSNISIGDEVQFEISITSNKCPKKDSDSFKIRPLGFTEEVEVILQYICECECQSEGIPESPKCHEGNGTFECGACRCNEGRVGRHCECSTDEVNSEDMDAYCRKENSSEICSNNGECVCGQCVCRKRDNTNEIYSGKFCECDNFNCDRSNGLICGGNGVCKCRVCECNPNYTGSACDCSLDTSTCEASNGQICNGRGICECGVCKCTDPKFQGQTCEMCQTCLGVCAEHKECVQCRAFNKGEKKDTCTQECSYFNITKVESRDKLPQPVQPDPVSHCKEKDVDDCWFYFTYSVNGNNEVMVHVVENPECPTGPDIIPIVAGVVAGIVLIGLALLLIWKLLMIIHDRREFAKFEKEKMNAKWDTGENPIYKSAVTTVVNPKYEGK

As for “1-boraadamantane 1-aminoadamantane complex [Complex 1]”, the “inhibiting the proliferation of the astrocyte cell line (ranking)” value in assay [1] (cell based assay, astrocyte cell line) was “most active compounds”. As for `O=C(O)[C@H](Cc1ccccc1)NC(=O)C12CC3CC(CC(C3)C1)C2` [Complex 15], in assay [1] (0.1 to 10 μM range of concentration), the “antiproliferative character (ranking)” value is reported as “greatest antiproliferative character”. In assay [1], the astrocyte-selective antiproliferation result is given as “astrocyte-selective antiproliferation”. `CC(C)C[C@H](NC(=O)C12CC3CC(CC(C3)C1)C2)C(=O)O` [Complex 16]: the astrocyte-selective antiproliferation result in assay [1] is “astrocyte-selective antiproliferation”. For the compound `COC(=O)C(CSSCC(NC(=O)C12CC3CC(CC(C3)C1)C2)C(=O)OC)NC(=O)C12CC3CC(CC(C3)C1)C2` [Compound 25, N,N-diadamantylcarbonyl-L-cystine methyl ester], the IC50 on α4 β1/VCAM cell line is greater than 800 µM. Regarding `O=C(O)C(CSSCC(NC(=O)C12CC3CC(CC(C3)C1)C2)C(=O)O)NC(=O)C12CC3CC(CC(C3)C1)C2` (stereo not shown) [Compound 26], the IC50 on α4 β1/VCAM cell line was 7.3 µM. With `Cl.NC12CC3CC(CC(C3)C1)C2` [amantadine, 1-aminoadamantane hydrochloride, reference compound], the “reduction of astrocyte proliferation” value in assay [1] (at high concentrations (>100 _M)) is on record as “only slightly reduces astrocyte proliferation”.
